Assay results from paper PMC5344672 (Journal of medicinal chemistry, 2016).
“Also recorded” adds a separate entry of the source.

How the values were obtained:
MOR-1 = MOR-1 (Mus musculus, UniProt P42866); assay: [35S]GTPγS functional assay, MOR-1 transfected cells; assay type: biochemical; conditions: in words
DOR-1 = DOR-1 (Mus musculus, UniProt P32300); assay: [35S]GTPγS functional assay, DOR-1 transfected cells; assay type: biochemical; conditions: in words
KOR-1 = KOR-1 (Mus musculus, UniProt P33534); assay type: biochemical
Chain of KOR-1 (P33534 whole entry): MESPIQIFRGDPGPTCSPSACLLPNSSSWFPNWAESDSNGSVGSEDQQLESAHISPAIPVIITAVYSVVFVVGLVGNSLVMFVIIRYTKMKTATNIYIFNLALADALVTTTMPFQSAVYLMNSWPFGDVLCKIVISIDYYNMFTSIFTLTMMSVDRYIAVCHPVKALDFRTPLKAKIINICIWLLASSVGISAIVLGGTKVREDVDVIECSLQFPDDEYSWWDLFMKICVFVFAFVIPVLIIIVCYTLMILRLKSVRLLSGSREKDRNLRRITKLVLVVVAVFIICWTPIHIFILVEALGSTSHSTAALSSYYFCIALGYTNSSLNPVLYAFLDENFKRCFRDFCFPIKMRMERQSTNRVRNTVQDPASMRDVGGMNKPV

mice [1] = assay: Radiant heat tail flick antinociception; assay type: in vivo, mouse
α2A adrenergic receptor = target: T1, α2A adrenergic receptor (Homo sapiens, UniProt P08913); assay: PDSP screening; assay type: binding; conditions: in words (Table S1)
T1 sequence (P08913 1-465): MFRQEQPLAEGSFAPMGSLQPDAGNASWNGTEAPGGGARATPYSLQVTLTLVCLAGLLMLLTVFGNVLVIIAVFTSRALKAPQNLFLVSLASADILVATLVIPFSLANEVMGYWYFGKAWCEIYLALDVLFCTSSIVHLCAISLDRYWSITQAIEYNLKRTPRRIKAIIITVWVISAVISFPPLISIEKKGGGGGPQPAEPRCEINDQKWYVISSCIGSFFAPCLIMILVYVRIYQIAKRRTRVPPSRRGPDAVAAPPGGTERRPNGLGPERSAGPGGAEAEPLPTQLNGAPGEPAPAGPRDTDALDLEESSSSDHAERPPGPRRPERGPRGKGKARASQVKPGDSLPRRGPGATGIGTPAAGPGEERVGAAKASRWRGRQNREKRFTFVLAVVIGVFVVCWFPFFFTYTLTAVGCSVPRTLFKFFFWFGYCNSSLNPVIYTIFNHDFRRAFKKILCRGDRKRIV

α2C adrenergic receptor = target: T2, α2C adrenergic receptor (Homo sapiens, UniProt P18825); assay: PDSP screening; assay type: binding; conditions: in words (Table S1)
T2 sequence (P18825 1-462): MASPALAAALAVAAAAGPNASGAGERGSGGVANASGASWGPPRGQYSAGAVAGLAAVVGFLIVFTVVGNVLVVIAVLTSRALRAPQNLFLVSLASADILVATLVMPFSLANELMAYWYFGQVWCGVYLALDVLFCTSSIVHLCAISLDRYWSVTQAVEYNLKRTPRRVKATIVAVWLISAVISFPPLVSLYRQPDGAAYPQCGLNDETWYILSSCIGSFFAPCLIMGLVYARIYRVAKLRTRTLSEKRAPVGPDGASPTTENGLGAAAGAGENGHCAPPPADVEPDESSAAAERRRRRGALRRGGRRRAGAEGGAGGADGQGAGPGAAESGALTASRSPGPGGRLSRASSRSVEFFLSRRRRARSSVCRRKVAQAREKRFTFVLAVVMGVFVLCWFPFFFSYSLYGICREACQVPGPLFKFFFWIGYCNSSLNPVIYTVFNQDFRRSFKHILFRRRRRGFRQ

5HT7 = 5HT7 (Homo sapiens, UniProt P34969); assay: PDSP screening; assay type: binding; conditions: in words (Table S1)
Chain of 5HT7 (P34969 whole entry, species assumed): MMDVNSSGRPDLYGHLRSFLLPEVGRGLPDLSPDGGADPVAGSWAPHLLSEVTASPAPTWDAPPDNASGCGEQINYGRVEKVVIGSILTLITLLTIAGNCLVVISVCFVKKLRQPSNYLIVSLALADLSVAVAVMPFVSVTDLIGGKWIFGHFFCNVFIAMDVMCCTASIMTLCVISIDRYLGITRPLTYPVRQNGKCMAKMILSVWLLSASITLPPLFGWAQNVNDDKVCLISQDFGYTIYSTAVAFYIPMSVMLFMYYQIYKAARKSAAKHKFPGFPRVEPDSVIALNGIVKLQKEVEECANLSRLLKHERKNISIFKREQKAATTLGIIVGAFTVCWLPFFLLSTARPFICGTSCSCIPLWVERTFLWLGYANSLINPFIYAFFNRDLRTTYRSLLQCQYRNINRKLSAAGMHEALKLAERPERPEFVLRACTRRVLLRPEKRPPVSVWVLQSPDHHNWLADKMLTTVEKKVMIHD

mice [2] = assay: Antinociceptive tolerance after repeated dosing; assay type: in vivo, mouse; conditions: twice daily dosing
mice [3] = assay: Gastrointestinal transit; assay type: in vivo, mouse
C57BL/6 mice = assay: Respiratory rate; assay type: in vivo, mouse
CD1 mice = assay: Reversal of tail flick antinociception by selective antagonists; assay type: in vivo, mouse; conditions: 3 1.5 mg/kg sc; β-FNA 40 mg/kg, norBNI 10 mg/kg, NTI 0.5 mg/kg, naloxone 1 mg/kg, yohimbine 10 mg/kg
mice [4] = assay: Antisense oligodeoxynucleotide mapping of tail flick antinociception; assay type: in vivo, mouse; conditions: 3 1.5 mg/kg sc, antisense icv days 1, 3, 5, test day 6
mice [5] = conditions: mouse, in vivo
[6] = target: panel of other nonopioid drug targets; assay: PDSP screening panel; assay type: binding; conditions: read-out: Ki at nonopioid drug targets
[7] = dose twice analgesic ED50: morphine 5 mg/kg sc, 3 1.5 mg/kg sc
[8] = higher dose: morphine 10 mg/kg, 3 3 mg/kg sc
[9] = ~2× analgesic ED50: morphine 5 mg/kg sc, 3 1.2 mg/kg sc

Chain of MOR-1 (P42866 whole entry): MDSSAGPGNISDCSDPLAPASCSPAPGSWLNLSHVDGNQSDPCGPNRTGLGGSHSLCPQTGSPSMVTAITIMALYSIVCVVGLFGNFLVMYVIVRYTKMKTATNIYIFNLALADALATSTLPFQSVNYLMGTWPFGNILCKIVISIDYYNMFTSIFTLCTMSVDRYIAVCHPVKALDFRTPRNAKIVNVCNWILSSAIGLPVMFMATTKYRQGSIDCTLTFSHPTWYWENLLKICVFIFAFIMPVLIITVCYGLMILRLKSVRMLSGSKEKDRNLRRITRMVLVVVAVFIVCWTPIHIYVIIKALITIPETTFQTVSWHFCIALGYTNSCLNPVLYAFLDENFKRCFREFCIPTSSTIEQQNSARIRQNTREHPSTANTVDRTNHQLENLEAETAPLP
Chain of DOR-1 (P32300 whole entry): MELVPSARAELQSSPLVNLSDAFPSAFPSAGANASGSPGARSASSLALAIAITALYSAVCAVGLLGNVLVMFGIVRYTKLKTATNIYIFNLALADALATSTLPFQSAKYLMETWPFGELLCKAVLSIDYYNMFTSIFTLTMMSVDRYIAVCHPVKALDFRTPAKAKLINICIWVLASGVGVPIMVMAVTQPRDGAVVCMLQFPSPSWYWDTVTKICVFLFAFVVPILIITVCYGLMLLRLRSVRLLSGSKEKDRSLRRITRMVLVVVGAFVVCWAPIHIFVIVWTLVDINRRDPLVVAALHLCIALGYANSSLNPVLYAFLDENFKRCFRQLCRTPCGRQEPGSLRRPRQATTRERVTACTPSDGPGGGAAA

CC[C@@H]1CN2CC[C@]3(Nc4cccc(O)c4C3=O)[C@@H]2C[C@@H]1/C(=C\OC)C(=O)OC [Compound 4, (E)-Methyl-2-((1′S,6′S,7′S)-6′-ethyl-4-hydroxy-3-oxo-3′,5′,6′,7′,8′,8a′-hexahydro-2′H-spiro[indoline-2,1′-indolizine]-7′-yl)-3-methoxyacrylate]
functional character at MOR-1 (MOR-1): MOR-1 agonists
functional character at DOR-1 (DOR-1): DOR-1 antagonists

CC[C@@H]1CN2CC[C@]3(Nc4ccccc4C3=O)[C@@H]2C[C@@H]1/C(=C\OC)C(=O)OC [Compound 6, (E)-Methyl-2-((1′S,6′S,7′S)-6′-ethyl-3-oxo-3′,5′,6′,7′,8′,8a′-hexahydro-2′H-spiro[indoline-2,1′-indolizin]-7′-yl)-3-methoxyacrylate]
functional character at MOR-1 (MOR-1): MOR-1 agonists
functional character at DOR-1 (DOR-1): DOR-1 antagonists

CC[C@@H]1CN2CC[C@]3(Nc4cccc(OC)c4C3=O)[C@@H]2C[C@@H]1/C(=C\OC)C(=O)OC [Compound 3, (E)-Methyl-2-((1′S,6′S,7′S)-6′-ethyl-4-methoxy-3-oxo-3′,5′,6′,7′,8′,8a′-hexahydro-2′H-spiro[indoline-2,1′-indolizine]-7′-yl)-3-methoxyacrylate]
functional character at MOR-1 (MOR-1): potent full agonist
functional character at KOR-1 (KOR-1): antagonist
functional character at DOR-1 (DOR-1): antagonist
antinociceptive activity across mouse strains (mice [1]; CD1, C57BL/6 and 129Sv6 mice, sc (Figure S5)): equally active
ED50 (95% CI), intracerebroventricular (mice [1]; CD1 mice, icv, tail flick, 15 min): 0.38 (0.18- 0.81) μg
ED50, exon 1/exon 11 double KO mice (mice [1]; E1/E11 MOR-1 KO mice, sc, tail flick): no antinociception was observed
affinity at α2A adrenergic receptor (α2A adrenergic receptor): poor affinity
affinity at α2C adrenergic receptor (α2C adrenergic receptor): poor affinity
affinity at 5HT7 (5HT7): poor affinity
ED50 shift after 5 days (mice [2]): < 2 fold
mean difference between 3 and morphine groups on day 5 (mice [2]; 95% CI 42.27 to 65.67): 53.97 %MPE
effect on gastrointestinal transit (mice [3]; 3 at 4 mg/kg sc): no further inhibition
effect on gastrointestinal transit (mice [3]; [7]): lowered gastrointestinal transit, but not nearly as much as morphine
decrease of respiratory rate (C57BL/6 mice; [8]): approximately 15%
decrease of respiratory rate (C57BL/6 mice; [9]): no respiratory depression
sensitivity of antinociception to antagonists (CD1 mice): insensitive to NTI, norBNI, and yohimbine; also recorded: antagonized by β-FNA and naloxone
effect of antisense receptor downregulation on analgesic response (mice [4]): only affected in mu receptor downregulated mice (MOR-1 AN)
conditioned place preference or aversion (mice [5]): neither preference or aversive behavior

CC[C@@H]1CN2CC[C@@]3(O)C(=Nc4cccc(OC)c43)[C@@H]2C[C@@H]1/C(=C\OC)C(=O)OC [Compound 2, (E)-Methyl-2-((2S,3S,7aS)-3-ethyl-7a-hydroxy-8-methoxy-1,2,3,4,6,7,7a,12b-octahydroindolo[2,3-a]quinolizin-2-yl)-3-methoxyacrylate]
functional character at MOR-1 (MOR-1): partial agonist
functional character at KOR-1 (KOR-1): weak KOR-1 and DOR-1 antagonist
functional character at DOR-1 (DOR-1): weak KOR-1 and DOR-1 antagonist
Ki [6]: > 10 µM

CC[C@@H]1CN2CC[C@]3(Nc4cccc(C#N)c4C3=O)[C@@H]2C[C@@H]1/C(=C\OC)C(=O)OC [Compound 7, (E)-Methyl-2-((1′S,6′S,7′S)-4-cyano-6′-ethyl-3-oxo-3′,5′,6′,7′,8′,8a′-hexahydro-2′H-spiro[indoline-2,1′-indolizine]-7′-yl)-3-methoxyacrylate]
functional character at MOR-1 (MOR-1): MOR-1 agonists
functional character at DOR-1 (DOR-1): DOR-1 antagonists

CN1CC[C@]23c4c5ccc(O)c4O[C@H]2[C@@H](O)C=C[C@H]3[C@H]1C5 [morphine, reference compound]
ED50 (mice [1]; Mus musculus, sc, 0.25 h, read-out: antinociception sc, ED50 mg/kg (CI)): 2.5 mg/kg
ED50 after 5 days (mice [2]; day 5): 12.1 (7.6–19.4) mg/kg
effect on gastrointestinal transit (mice [3]; [7]): almost totally eliminated transit
decrease of respiratory rate (C57BL/6 mice; [8]): approximately 50%
decrease of respiratory rate (C57BL/6 mice; [9]): approximately 30%
conditioned place preference or aversion (mice [5]): significant conditioned place preference

CC[C@@H]1CN2CC[C@]3(Nc4cccc(-c5ccccc5)c4C3=O)[C@@H]2C[C@@H]1/C(=C\OC)C(=O)OC [Compound 8, (E)-Methyl-2-((1′S,6′S,7′S)-6′-ethyl-3-oxo-4-phenyl-3′,5′,6′,7′,8′,8a′-hexahydro-2′H-spiro[indoline-2,1′-indolizine]-7′-yl)-3-methoxyacrylate]
functional character at MOR-1 (MOR-1): dual MOR-1/DOR-1 agonist
functional character at DOR-1 (DOR-1): dual MOR-1/DOR-1 agonist

CC[C@@H]1CN2CC[C@]3(Nc4cccc(-c5ccoc5)c4C3=O)[C@@H]2C[C@@H]1/C(=C\OC)C(=O)OC [Compound 9, (E)-Methyl-2-((1′S,6′S,7′S)-6′-ethyl-4-(furan-3-yl)-3-oxo-3′,5′,6′,7′,8′,8a′-hexahydro-2′H-spiro[indoline-2,1′-indolizine]-7′-yl)-3-methoxyacrylate]
functional character at MOR-1 (MOR-1): MOR-1 agonists
functional character at DOR-1 (DOR-1): DOR-1 antagonists
